From patent publication US20240083857A1, “2-Methyl-Quinazolines” (Bayer Pharma Aktiengesellschaft, priority 2017, published 2024)
Where two headings read alike, the source gives them in different places.

Columns and labels:
[1] = biological target: K-Ras^G12C : hSOS1 interaction (Homo sapiens, UniProt Q07889); assay: Biochemical assay 1: K-Ras^G12C interaction assay with hSOS1 (HTRF); type: binding; details: for IC50: E-notation values, unit inferred, read-out: Assay 1 (KRAS-SOS interaction) IC50; for inhibition at 20 µM: read-out: Assay 1 (KRAS-SOS Interaction) activity expressed as % inhibition at 20 μM
[2] = biological target: human SOS1 (nucleotide exchange of K-Ras^G12C) (Homo sapiens, UniProt Q07889); assay: Biochemical assay 2: K-Ras^G12C activation assay by hSOS1 at high GTP concentration (HTRF); details: for inhibition at 20 µM: read-out: Assay 2 (KRAS-Activation by SOS high GTP) activity expressed as % inhibition at 20 μM
[3] = E-notation values, unit inferred, 50 μM GTP, read-out: Assay 2 (KRAS-Activation, high GTP) IC50
[4] = high GTP, read-out: Assay 2 (KRAS-Activation by SOS high GTP) activity expressed as IC50

Compound	IC50 [1] [µM]	IC50 [2, 3] [µM]	inhibition at 20 µM [1] [%]	inhibition at 20 µM ([2]; high GTP) [%]	IC50 [2, 4] [µM]
COc1cc2nc(C)nc(NC(C)c3ccc(-c4ccccc4CN(C)C)s3)c2cc1OC (single isomer, unassigned) [Example 390, N-[1-(5-{2-[(dimethylamino)methyl]phenyl}thiophen-2-yl)ethyl]-6,7-dimethoxy-2-methylquinazolin-4-amine]	5	6.25			
COc1cc2nc(C)nc(NC(C)c3ccc(-c4ccccc4CN(C)C)s3)c2cc1OC (single isomer, unassigned) [Example 391, N-[1-(5-{2-[(dimethylamino)methyl]phenyl}thiophen-2-yl)ethyl]-6,7-dimethoxy-2-methylquinazolin-4-amine]	0.0155	0.0367			
COc1cc2nc(C)nc(NC(C)c3ccc(=O)[nH]c3)c2cc1OC (single isomer, unassigned; enantiomer 1) [Example 227, 5-{1-[(6,7-dimethoxy-2-methylquinazolin-4-yl)amino]ethyl}pyridin-2(1H)-one, Enantiomer 1]			48	24	
COc1cc2nc(C)nc(NC(C)c3c(C)ccc4[nH]ncc34)c2cc1OC (centres unmarked) [Example 7, 6,7-dimethoxy-2-methyl-N-[1-(5-methyl-1H-indazol-4-yl)ethyl]quinazolin-4-amine]			44	18	
COc1cc2nc(C)nc(NC(C)c3ccc(-n4ccc(CCO)n4)o3)c2cc1OC (centres unmarked) [Example 226, 2-[1-(5-{1-[(6,7-dimethoxy-2-methylquinazolin-4-yl)amino]ethyl}furan-2-yl)-1H-pyrazol-3-yl]ethanol]			43	37	
COc1cc2nc(C)nc(NC(C)c3ccc(C4=CCCC4)s3)c2cc1OC (centres unmarked) [Example 231, N-{1-[5-(cyclopent-1-en-1-yl)thiophen-2-yl]ethyl}-6,7-dimethoxy-2-methylquinazolin-4-amine]			56	53	
COc1cc2nc(C)nc(NC(C)c3ccc(-c4ccc(CNC(=O)OC(C)(C)C)o4)s3)c2cc1OC (centres unmarked) [Example 236, tert-butyl {[5-(5-{1-[(6,7-dimethoxy-2-methylquinazolin-4-yl)amino]ethyl}thiophen-2-yl)furan-2-yl]methyl}carbamate]			37		3.82
COC(=O)c1cc(-c2ccc(C(C)Nc3nc(C)nc4cc(OC)c(OC)cc34)s2)nn1C (centres unmarked) [Example 237, methyl 3-(5-{1-[(6,7-dimethoxy-2-methylquinazolin-4-yl)amino]ethyl}thiophen-2-yl)-1-methyl-1H-pyrazole-5-carboxylate]			31	32	
COc1cc2nc(C)nc(NC(C)c3ccc(-c4ccc(F)cc4CNC(=O)c4cc5ccccc5[nH]4)s3)c2cc1OC (centres unmarked) [Example 296, N-[2-(5-{1-[(6,7-dimethoxy-2-methylquinazolin-4-yl)amino]ethyl}thiophen-2-yl)-5-fluorobenzyl]-1H-indole-2-carboxamide]			34	48	
COc1cc2nc(C)nc(NC(C)c3ccc(-c4ccccc4CN4CCN(C(=O)OC(C)(C)C)CC4)s3)c2cc1OC (centres unmarked) [Example 306, tert-butyl 4-[2-(5-{1-[(6,7-dimethoxy-2-methylquinazolin-4-yl)amino]ethyl}thiophen-2-yl)benzyl]piperazine-1-carboxylate]			45		4.2
COc1cc2nc(C)nc(NC(C)c3ccc(-c4ccccc4CNc4ccccc4)s3)c2cc1OC (centres unmarked) [Example 362, 6,7-dimethoxy-2-methyl-N-[1-(5-{2-[(phenylamino)methyl]phenyl}thiophen-2-yl)ethyl]quinazolin-4-amine]			26	27	
COCCNCc1ccccc1-c1ccc(C(C)Nc2nc(C)nc3cc(OC)c(OC)cc23)s1 (centres unmarked) [Example 369, 6,7-dimethoxy-N-{1-[5-(2-{[(2-methoxyethyl)amino]methyl}phenyl)thiophen-2-yl]ethyl}-2-methylquinazolin-4-amine]	0.0995	0.152			
COc1cc2nc(C)nc(NC(C)c3ccc(-c4ccccc4CNC4CC4)s3)c2cc1OC (centres unmarked) [Example 370, N-[1-(5-{2-[(cyclopropylamino)methyl]phenyl}thiophen-2-yl)ethyl]-6,7-dimethoxy-2-methylquinazolin-4-amine]	0.27	0.352			
COC(=O)c1ccc2nc(C)nc(N[C@H](C)c3cccc(Cl)c3)c2c1 [Example 371, methyl 4-{[(1R)-1-(3-chlorophenyl)ethyl]amino}-2-methylquinazoline-6-carboxylate]	1.89	2.42			
Cc1nc(N[C@H](C)c2cccc(Cl)c2)c2cc(CO)ccc2n1 [Example 373, (4-{[(1R)-1-(3-chlorophenyl)ethyl]amino}-2-methylquinazolin-6-yl)methanol]	1.52	6.2			
COc1cc2nc(C)nc(NC(C)c3ccc(-c4ccccc4C(O)c4ccccc4)s3)c2cc1OC (centres unmarked) [Example 374, [2-(5-{1-[(6,7-dimethoxy-2-methylquinazolin-4-yl)amino]ethyl}thiophen-2-yl)-phenyl](phenyl)methanol]	1.6	2.55			

Compound	IC50 [1] [µM]	IC50 [2, 3] [µM]	inhibition at 20 µM [1] [%]	inhibition at 20 µM ([2]; high GTP) [%]	IC50 [2, 4] [µM]
COc1cc2nc(C)nc(NC(C)c3ccc(-c4ccccc4C(O)Cc4ccccc4)s3)c2cc1OC (centres unmarked) [Example 376, 1-[2-(5-{1-[(6,7-dimethoxy-2-methylquinazolin-4-yl)amino]ethyl}thiophen-2-yl)phenyl]-2-phenylethanol]	5.46	18.4			
CCCCC(O)c1ccccc1-c1ccc(C(C)Nc2nc(C)nc3cc(OC)c(OC)cc23)s1 (centres unmarked) [Example 377, 1-[2-(5-{1-[(6,7-dimethoxy-2-methylquinazolin-4-yl)amino]ethyl}thiophen-2-yl)phenyl]pentan-1-ol]	5.14	9.75			
C#CC(O)c1ccccc1-c1ccc(C(C)Nc2nc(C)nc3cc(OC)c(OC)cc23)s1 (centres unmarked) [Example 378, 1-[2-(5-{1-[(6,7-dimethoxy-2-methylquinazolin-4-yl)amino]ethyl}thiophen-2-yl)phenyl]prop-2-yn-1-ol]	0.43	1.05			
COc1cc2nc(C)nc(NC(C)c3ccc(-c4ccccc4C(O)C(C)C)s3)c2cc1OC (centres unmarked) [Example 379, 1-[2-(5-{1-[(6,7-dimethoxy-2-methylquinazolin-4-yl)amino]ethyl}thiophen-2-yl)phenyl]-2-methylpropan-1-ol]	0.568	1.35			
COc1cc2nc(C)nc(NC(C)c3ccc(-c4ccccc4C(O)C(F)(F)F)s3)c2cc1OC (centres unmarked) [Example 380, 1-[2-(5-{1-[(6,7-dimethoxy-2-methylquinazolin-4-yl)amino]ethyl}thiophen-2-yl)phenyl]-2,2,2-trifluoroethanol]	0.937	1.6			
COc1cc2nc(C)nc(NC(C)c3cc(C)c(-c4cnc5n4CCC5)s3)c2cc1OC (centres unmarked) [Example 381, N-{1-[5-(6,7-dihydro-5H-pyrrolo[1,2-a]imidazol-3-yl)-4-methylthiophen-2-yl]ethyl}-6,7-dimethoxy-2-methylquinazolin-4-amine]	0.49	1.9			
COc1cc2nc(C)nc(NC(C)c3ccc(-c4ccc(F)cc4CNC(=O)CO)s3)c2cc1OC (centres unmarked) [Example 382, N-[2-(5-{1-[(6,7-dimethoxy-2-methylquinazolin-4-yl)amino]ethyl}thiophen-2-yl)-5-fluorobenzyl]-2-hydroxyacetamide]	0.253	0.931			
COCC(=O)NCc1cc(F)ccc1-c1ccc(C(C)Nc2nc(C)nc3cc(OC)c(OC)cc23)s1 (centres unmarked) [Example 383, N-[2-(5-{1-[(6,7-dimethoxy-2-methylquinazolin-4-yl)amino]ethyl}thiophen-2-yl)-5-fluorobenzyl]-2-methoxyacetamide]	0.984	3.62			
COc1cc2nc(C)nc(NC(C)c3ccc(-c4cc(Cl)ccc4CNC(=O)OC(C)(C)C)s3)c2cc1OC (centres unmarked) [Example 387, tert-butyl [4-chloro-2-(5-{1-[(6,7-dimethoxy-2-methylquinazolin-4-yl)amino]ethyl}-thiophen-2-yl)benzyl]carbamate]	1.17	1.66			
COc1cc2nc(C)nc(N[C@H](C)c3cccc(-c4ccnc(O)c4)c3)c2cc1OC [Example 388, 4-(3-{(1R)-1-[(6,7-dimethoxy-2-methylquinazolin-4-yl)amino]ethyl}phenyl)pyridin-2-ol]	0.205	0.801			
COc1cc2nc(C)nc(NC(C)c3cccc(OCc4ccccc4)c3)c2cc1OC (centres unmarked) [Example 389, N-{1-[3-(benzyloxy)phenyl]ethyl}-6,7-dimethoxy-2-methylquinazolin-4-amine]	6.69	14.9			
Cc1nc(N[C@H](C)c2cccc(Cl)c2)c2cc(C(C)(C)O)ccc2n1 [Example 392, 2-(4-{[(1R)-1-(3-chlorophenyl)ethyl]amino}-2-methylquinazolin-6-yl)propan-2-ol]	0.338	1.19			
COc1cc2nc(C)nc(N[C@H](C)c3cccc(-c4ccccc4CC(N)=O)c3)c2cc1OC [Example 393, 2-(3′-{(1R)-1-[(6,7-dimethoxy-2-methylquinazolin-4-yl)amno]ethyl}biphenyl-2-yl)acetamide]	0.244	0.975			
COc1cc2nc(C)nc(NC(C)c3ccc(-c4ccccc4CC(N)=O)s3)c2cc1OC (centres unmarked) [Example 394, 2-[2-(5-{1-[(6,7-dimethoxy-2-methylquinazolin-4-yl)amino]ethyl}thiophen-2-yl)phenyl]acetamide]	0.405	1.62			
COc1cc2nc(C)nc(NC(C)c3ccc(-c4ccc(O)nc4)s3)c2cc1OC (centres unmarked) [Example 395, 5-(5-{1-[(6,7-dimethoxy-2-methylquinazolin-4-yl)amino]ethyl}thiophen-2-yl)pyridin-2-ol]	0.984	1.06			
